Data: ChEMBL document CHEMBL1909046, “DrugMatrix in vitro pharmacology data”

Assays:
D(4) dopamine receptor = molecular target: T1, D(4) dopamine receptor (Homo sapiens, UniProt P21917); assay: DRUGMATRIX: Dopamine D4.2 radioligand binding (ligand: [3H] Spiperone); format: cell membranes, CHO-K1, Membrane; conditions: cho-k1; Not Active = under 50% inhibition at 10 µM
T1 sequence (P21917 whole entry): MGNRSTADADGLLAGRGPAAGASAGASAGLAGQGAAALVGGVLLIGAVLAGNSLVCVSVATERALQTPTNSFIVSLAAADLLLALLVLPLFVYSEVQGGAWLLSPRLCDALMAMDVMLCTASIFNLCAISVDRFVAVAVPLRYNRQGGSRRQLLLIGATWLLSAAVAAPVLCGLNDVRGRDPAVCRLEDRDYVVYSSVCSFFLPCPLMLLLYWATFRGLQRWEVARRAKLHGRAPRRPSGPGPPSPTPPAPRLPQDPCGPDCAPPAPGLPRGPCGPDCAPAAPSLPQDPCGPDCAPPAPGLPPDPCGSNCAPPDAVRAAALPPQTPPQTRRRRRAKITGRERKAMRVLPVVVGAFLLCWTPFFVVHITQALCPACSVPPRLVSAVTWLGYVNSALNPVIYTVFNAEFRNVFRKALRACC

[1] = DRUGMATRIX: Platelet-Derived Growth Factor (PDGF) radioligand binding (ligand: [125I] PDGF); format: cell-based; conditions: nih3t3; Not Active = under 50% inhibition at 10 µM
[2] = DRUGMATRIX: GABAA, Chloride Channel, TBOB radioligand binding (ligand: [3H] TBOB); format: cell membranes, Rattus norvegicus, Wistar, Cerebral cortex, Membrane; conditions: Not Active = under 50% inhibition at 10 µM
Caspase-1 = molecular target: T2, Caspase-1 (Homo sapiens, UniProt P29466); design: species or system Escherichia coli;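 further: Caspase-1 enzyme inhibition assay with a peptide substrate; in other assays of this panel Not Active means under 50% inhibition at 10 µM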
T2 sequence (P29466 whole entry): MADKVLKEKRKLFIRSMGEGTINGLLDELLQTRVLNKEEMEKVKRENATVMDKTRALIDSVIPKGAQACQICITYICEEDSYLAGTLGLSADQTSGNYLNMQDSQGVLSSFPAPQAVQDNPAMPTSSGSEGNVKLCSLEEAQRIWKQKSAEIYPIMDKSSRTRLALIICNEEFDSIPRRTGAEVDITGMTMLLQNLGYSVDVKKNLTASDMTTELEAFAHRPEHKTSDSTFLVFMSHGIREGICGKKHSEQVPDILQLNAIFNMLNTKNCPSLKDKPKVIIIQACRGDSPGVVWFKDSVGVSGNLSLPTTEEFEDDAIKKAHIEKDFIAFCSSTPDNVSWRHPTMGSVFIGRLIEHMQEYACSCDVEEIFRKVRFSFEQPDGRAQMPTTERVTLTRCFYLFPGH

Estrogen receptor = molecular target: T3, Estrogen receptor (Homo sapiens, UniProt P03372); conditions: sf9; further: in other assays of this panel Not Active means under 50% inhibition at 10 µM
T3 sequence (P03372 whole entry): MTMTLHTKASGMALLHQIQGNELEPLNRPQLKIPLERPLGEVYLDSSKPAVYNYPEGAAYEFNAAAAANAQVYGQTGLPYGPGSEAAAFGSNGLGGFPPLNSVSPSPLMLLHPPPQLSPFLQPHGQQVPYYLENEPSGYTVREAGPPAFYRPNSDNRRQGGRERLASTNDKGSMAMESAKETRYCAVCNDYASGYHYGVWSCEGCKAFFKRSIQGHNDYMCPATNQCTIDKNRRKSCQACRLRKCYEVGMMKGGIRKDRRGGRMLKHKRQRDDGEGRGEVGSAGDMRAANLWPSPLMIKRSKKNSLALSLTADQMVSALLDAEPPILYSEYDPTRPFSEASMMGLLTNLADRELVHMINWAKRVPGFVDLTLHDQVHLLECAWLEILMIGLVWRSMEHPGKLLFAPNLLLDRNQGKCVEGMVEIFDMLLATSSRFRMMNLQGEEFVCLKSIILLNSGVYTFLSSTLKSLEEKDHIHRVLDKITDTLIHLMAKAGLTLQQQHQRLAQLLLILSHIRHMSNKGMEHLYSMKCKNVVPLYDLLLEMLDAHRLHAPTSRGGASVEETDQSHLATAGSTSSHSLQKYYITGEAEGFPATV

[3] = molecular target: T4, Muscarinic acetylcholine receptor M5 (Homo sapiens, UniProt P08912); format: cell membranes, CHO-K1, Membrane; further: in other assays of this panel Not Active means under 50% inhibition at 10 µM
T4 sequence (P08912 whole entry): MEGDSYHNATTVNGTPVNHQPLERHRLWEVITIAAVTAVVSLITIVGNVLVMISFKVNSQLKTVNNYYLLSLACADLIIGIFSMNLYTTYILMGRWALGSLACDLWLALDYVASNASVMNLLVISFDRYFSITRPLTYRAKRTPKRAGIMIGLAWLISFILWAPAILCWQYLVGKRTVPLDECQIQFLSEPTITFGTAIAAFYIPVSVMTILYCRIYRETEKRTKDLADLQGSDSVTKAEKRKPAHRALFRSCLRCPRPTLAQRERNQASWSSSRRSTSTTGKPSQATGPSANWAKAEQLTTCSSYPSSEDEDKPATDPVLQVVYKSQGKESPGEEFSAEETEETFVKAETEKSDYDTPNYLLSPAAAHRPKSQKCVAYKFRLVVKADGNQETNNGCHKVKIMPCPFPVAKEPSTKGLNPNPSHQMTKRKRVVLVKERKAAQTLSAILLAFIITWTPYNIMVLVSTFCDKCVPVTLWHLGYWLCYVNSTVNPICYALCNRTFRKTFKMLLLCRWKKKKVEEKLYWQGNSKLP

[4] = molecular target: Protein phosphatase 3 catalytic subunit alpha (Homo sapiens, UniProt Q08209); design: species or system Escherichia coli;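 further: inhibition of calcineurin (PP2B) enzyme activity, measured with DiFMUP as the substrate; in other assays of this panel Not Active means under 50% inhibition at 10 µM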
Calcitonin receptor = molecular target: T5, Calcitonin receptor (Homo sapiens, UniProt P30988); format: cell membranes, Membrane; conditions: t47d; further: in other assays of this panel Not Active means under 50% inhibition at 10 µM
T5 sequence (P30988 whole entry): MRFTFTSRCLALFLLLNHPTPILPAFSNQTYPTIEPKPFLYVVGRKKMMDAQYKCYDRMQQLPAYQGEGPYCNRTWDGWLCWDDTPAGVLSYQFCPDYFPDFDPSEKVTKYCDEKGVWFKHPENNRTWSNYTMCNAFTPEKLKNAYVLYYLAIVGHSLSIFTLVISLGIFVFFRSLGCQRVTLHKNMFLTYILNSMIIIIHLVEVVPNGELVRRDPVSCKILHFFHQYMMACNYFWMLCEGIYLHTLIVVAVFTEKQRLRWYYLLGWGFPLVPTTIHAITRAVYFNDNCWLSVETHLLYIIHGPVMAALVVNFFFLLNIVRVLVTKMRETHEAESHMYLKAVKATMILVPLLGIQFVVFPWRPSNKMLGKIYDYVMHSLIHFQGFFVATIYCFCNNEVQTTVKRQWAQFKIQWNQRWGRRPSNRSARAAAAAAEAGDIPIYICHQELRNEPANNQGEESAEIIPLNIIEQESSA

| SMILES | IC50 (D(4) dopamine receptor) | IC50 [1] | Ki [1] | IC50 [2] | Ki [2] | IC50 (Caspase-1) | IC50 (Estrogen receptor) | IC50 ([3]; cho-k1) | IC50 [4] | IC50 (Calcitonin receptor) | IC50 ([3]; read-out: IC50) [nM] | Ki ([3]; read-out: Ki) [nM] |
| --- | --- | --- | --- | --- | --- | --- | --- | --- | --- | --- | --- | --- |
| NC(=O)NC(=O)Cc1ccccc1 [PHENACEMIDE] | Not Active | Not Active | Not Active | Not Active | Not Active | Not Active | Not Active | Not Active | Not Active | Not Active |  |  |
| Nc1nc(N)c2nc(CNc3ccc(C(=O)N[C@@H](CCC(=O)O)C(=O)O)cc3)cnc2n1 [AMINOPTERIN] | Not Active | Not Active | Not Active | Not Active | Not Active | Not Active | Not Active | Not Active | Not Active | Not Active |  |  |
| c1ccc(Cn2ccnc2)cc1 | Not Active | Not Active | Not Active | Not Active | Not Active | Not Active | Not Active | Not Active | Not Active | Not Active |  |  |
| COc1cc(/C=C/C(=O)O)ccc1O [FERULATE] | Not Active | Not Active | Not Active | Not Active | Not Active | Not Active | Not Active | Not Active | Not Active | Not Active |  |  |
| CC1(COc2ccc(CC3SC(=O)NC3=O)cc2)CCCCC1 (stereo unspecified) [CIGLITAZONE] | Not Active | Not Active | Not Active | Not Active | Not Active | Not Active | Not Active | Not Active | Not Active | Not Active |  |  |
| Oc1ncnc2[nH]ncc12 [ALLOPURINOL] | Not Active | Not Active | Not Active | Not Active | Not Active | Not Active | Not Active | Not Active | Not Active | Not Active |  |  |
| Cc1cc(C(C)(C)C)c(O)c(C)c1CC1=NCCN1 [OXYMETAZOLINE] | Not Active | Not Active | Not Active | Not Active | Not Active | Not Active | Not Active |  | Not Active | Not Active | 1330 | 957 |
| CC(C)Cn1cnc2c(N)nc3ccccc3c21 [IMIQUIMOD] | Not Active | Not Active | Not Active | Not Active | Not Active | Not Active | Not Active | Not Active | Not Active | Not Active |  |  |
| NS(=O)(=O)c1cc(C(=O)O)c(NCc2ccco2)cc1Cl [FUROSEMIDE] | Not Active | Not Active | Not Active | Not Active | Not Active | Not Active | Not Active | Not Active | Not Active | Not Active |  |  |
